Measurements taken from patent US20190030170A1, “CANNABINOID FORMULATIONS WITH IMPROVED SOLUBILITY” (Vireo Health LLC, priority 2016, published 2019).
In brackets after ≈: the same amount, converted by molar mass.

Test: solubility of CBD in water and other aqueous solvents with Captisol (SAE-CD) and/or added polymers, surfactants, pH
Format: physicochemical
Text: In some embodiments the addition of water soluble polymers and/or surfactants increases the solubility of the CBD/Captisol mixture. Therefore, in some embodiments the formulations may include the addition of these or other ingredients as solubility enhancers.

C=C(C)[C@@H]1CCC(C)=C[C@H]1c1c(O)cc(CCCCC)cc1O [CBD, cannabidiol]
solubility (aqueous solvent with 0.5% Poloxamer 188, without Captisol, aqueous with cosolvent or surfactant or cyclodextrin, Captisol 0%, 0.5% Poloxamer 188): 133 µg/mL (≈ 0.423 mM) | solubility (aqueous solvent, aqueous with cosolvent or surfactant or cyclodextrin, Captisol 0%, 1% CMC): 593 µg/mL (≈ 1.89 mM) | solubility (aqueous solvent, aqueous with cosolvent or surfactant or cyclodextrin, Captisol 0%, 1% CrEL): 8960 µg/mL (≈ 28.5 mM) | solubility (aqueous solvent, aqueous with cosolvent or surfactant or cyclodextrin, Captisol 0%, 1% HPMC): 590 µg/mL (≈ 1.88 mM) | solubility (aqueous solvent, aqueous with cosolvent or surfactant or cyclodextrin, Captisol 0%, 1% PVP): 602 µg/mL (≈ 1.92 mM) | solubility (aqueous solvent, aqueous with cosolvent or surfactant or cyclodextrin, Captisol 0%, 1% Tween 80): 4200 µg/mL (≈ 13.3 mM) | solubility (aqueous solvent, aqueous with cosolvent or surfactant or cyclodextrin, Captisol 0%, 5% CrEL): 21900 µg/mL (≈ 69.7 mM) | solubility (aqueous solvent, aqueous with cosolvent or surfactant or cyclodextrin, Captisol 0%, 10% CrEL): 47800 µg/mL (≈ 152 mM) | solubility (aqueous solvent, aqueous with cosolvent or surfactant or cyclodextrin, Captisol 20%, 0.5% CMC): 14.5 µg/mL (≈ 0.0461 mM) | solubility (aqueous solvent, aqueous with cosolvent or surfactant or cyclodextrin, Captisol 20%, 0.5% HPMC): 1320 µg/mL (≈ 4.2 mM) | solubility (aqueous solvent, aqueous with cosolvent or surfactant or cyclodextrin, Captisol 20%, 0.5% PVP): 1180 µg/mL (≈ 3.74 mM) | solubility (aqueous solvent, aqueous with cosolvent or surfactant or cyclodextrin, Captisol 20%, 0.5% Poloxamer 188): 1410 µg/mL (≈ 4.49 mM) | solubility (aqueous solvent, aqueous with cosolvent or surfactant or cyclodextrin, Captisol 20%, 1% CMC): 1710 µg/mL (≈ 5.44 mM) | solubility (aqueous solvent, aqueous with cosolvent or surfactant or cyclodextrin, Captisol 20%, 1% CrEL): 4280 µg/mL (≈ 13.6 mM) | solubility (aqueous solvent, aqueous with cosolvent or surfactant or cyclodextrin, Captisol 20%, 1% HPMC): 1550 µg/mL (≈ 4.94 mM) | solubility (aqueous solvent, aqueous with cosolvent or surfactant or cyclodextrin, Captisol 20%, 1% PVP): 1520 µg/mL (≈ 4.82 mM) | solubility (aqueous solvent, aqueous with cosolvent or surfactant or cyclodextrin, Captisol 20%, 1% Tween 80): 2010 µg/mL (≈ 6.4 mM) | solubility (aqueous solvent, aqueous with cosolvent or surfactant or cyclodextrin, Captisol 20%, 2% CMC): 365 µg/mL (≈ 1.16 mM) | solubility (aqueous solvent, aqueous with cosolvent or surfactant or cyclodextrin, Captisol 20%, 2% PVP): 840 µg/mL (≈ 2.67 mM) | solubility (aqueous solvent, aqueous with cosolvent or surfactant or cyclodextrin, Captisol 20%, 2% Tween 80): 720 µg/mL (≈ 2.29 mM) | solubility (aqueous solvent, aqueous with cosolvent or surfactant or cyclodextrin, Captisol 20%, 5% CrEL): 13500 µg/mL (≈ 43 mM) | solubility (aqueous solvent, aqueous with cosolvent or surfactant or cyclodextrin, Captisol 20%, 5% CrEL and EtOH): 21500 µg/mL (≈ 68.4 mM) | solubility (aqueous solvent, aqueous with cosolvent or surfactant or cyclodextrin, Captisol 20%, 10% CrEL): 46700 µg/mL (≈ 149 mM) | solubility (aqueous solvent, aqueous with cosolvent or surfactant or cyclodextrin, Captisol 20%, EtOH (line below the 10% heading)): 920 µg/mL (≈ 2.93 mM) | solubility (aqueous solvent, aqueous with cosolvent or surfactant or cyclodextrin, Captisol 20%, additive None): 850 µg/mL (≈ 2.7 mM) | solubility (aqueous solvent, aqueous with cosolvent or surfactant or cyclodextrin, Captisol 40%, 0.5% CMC): 3270 µg/mL (≈ 10.4 mM) | solubility (aqueous solvent, aqueous with cosolvent or surfactant or cyclodextrin, Captisol 40%, 0.5% HPMC): 2680 µg/mL (≈ 8.52 mM) | solubility (aqueous solvent, aqueous with cosolvent or surfactant or cyclodextrin, Captisol 40%, 0.5% PVP): 2950 µg/mL (≈ 9.37 mM) | solubility (aqueous solvent, aqueous with cosolvent or surfactant or cyclodextrin, Captisol 40%, 0.5% Tween 80): 2020 µg/mL (≈ 6.42 mM) | solubility (aqueous solvent, aqueous with cosolvent or surfactant or cyclodextrin, Captisol 40%, 1% CMC): 2640 µg/mL (≈ 8.38 mM) | solubility (aqueous solvent, aqueous with cosolvent or surfactant or cyclodextrin, Captisol 40%, 1% HPMC): 3450 µg/mL (≈ 11 mM) | solubility (aqueous solvent, aqueous with cosolvent or surfactant or cyclodextrin, Captisol 40%, 1% PVP): 3280 µg/mL (≈ 10.4 mM) | solubility (aqueous solvent, aqueous with cosolvent or surfactant or cyclodextrin, Captisol 40%, 1% Tween 80): 2650 µg/mL (≈ 8.43 mM) | solubility (aqueous solvent, aqueous with cosolvent or surfactant or cyclodextrin, Captisol 40%, additive None): 2800 µg/mL (≈ 8.9 mM) | solubility (aqueous solvent, aqueous with cosolvent or surfactant or cyclodextrin, Captisol 0%, 5% CrEL and EtOH): 36200 µg/mL (≈ 115 mM) | solubility (aqueous solvent, pH 2, aqueous with cosolvent or surfactant or cyclodextrin, Captisol 20%, pH ~2): 2480 µg/mL (≈ 7.89 mM) | solubility (aqueous solvent, pH 4, aqueous with cosolvent or surfactant or cyclodextrin, Captisol 20%, pH 4): 650 µg/mL (≈ 2.07 mM) | solubility (aqueous solvent, pH 7.4, aqueous with cosolvent or surfactant or cyclodextrin, Captisol 20%, PBS (pH = 7.4)): 720 µg/mL (≈ 2.29 mM) | solubility (aqueous solvent, pH 7.4, aqueous with cosolvent or surfactant or cyclodextrin, Captisol 40%, PBS (pH = 7.4)): 2300 µg/mL (≈ 7.31 mM) | solubility (aqueous solvent, pH 9, aqueous with cosolvent or surfactant or cyclodextrin, Captisol 20%, pH 9): 850 µg/mL (≈ 2.7 mM) | solubility (aqueous solvent, water, Captisol 0%, additive None): 0.26 µg/mL (≈ 0.000827 mM) | effect of complexation with Captisol on solubility of CBD in water and other aqueous solvents (complexation with an SAE-CD (Captisol)): significantly increased
